System: 855422-203-R-J1-PDC complex spheroid viability
Experiment: Anticancer human tumor 855422-203-R-J1-PDC patient-derived bladder carcinoma cell line growth inhibition [POLQ]
Details: for IC50: curve of first compound; for viability, T/C: stronger effect = lower value
Method in brief: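 PDC + HUVEC + MSC complex spheroids; POLQ inhibitors ± partner drugs; top conc. at/near clinical Cmax, else 10 microM (SN-38 1 microM), half-log dilutions; 37 degrees C, 5% CO2.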

[1] = second compound 0.0316 µM, first compound 0.0316 µM
[2] = second compound 0.0316 µM, first compound 0.1 µM
[3] = second compound 0.0316 µM, first compound 0.316 µM
[4] = second compound 0.0316 µM, first compound 1 µM
[5] = second compound 0.0316 µM, first compound 3.16 µM
[6] = second compound 0.0316 µM, first compound 10 µM
[7] = second compound 0.1 µM, first compound 0.0316 µM
[8] = second compound 0.1 µM, first compound 0.1 µM
[9] = second compound 0.1 µM, first compound 0.316 µM
[10] = second compound 0.1 µM, first compound 1 µM
[11] = second compound 0.1 µM, first compound 3.16 µM
[12] = second compound 0.1 µM, first compound 10 µM
[13] = second compound 0.316 µM, first compound 0.0316 µM
[14] = second compound 0.316 µM, first compound 0.1 µM
[15] = second compound 0.316 µM, first compound 0.316 µM
[16] = second compound 0.316 µM, first compound 1 µM
[17] = second compound 0.316 µM, first compound 3.16 µM
[18] = second compound 0.316 µM, first compound 10 µM
[19] = second compound 1 µM, first compound 0.0316 µM
[20] = second compound 1 µM, first compound 0.1 µM
[21] = second compound 1 µM, first compound 0.316 µM
[22] = second compound 1 µM, first compound 1 µM
[23] = second compound 1 µM, first compound 3.16 µM
[24] = second compound 1 µM, first compound 10 µM
[25] = second compound 3.16 µM, first compound 0.0316 µM
[26] = second compound 3.16 µM, first compound 0.1 µM
[27] = second compound 3.16 µM, first compound 0.316 µM
[28] = second compound 3.16 µM, first compound 1 µM
[29] = second compound 3.16 µM, first compound 3.16 µM
[30] = second compound 3.16 µM, first compound 10 µM
[31] = second compound 10 µM, first compound 0.0316 µM
[32] = second compound 10 µM, first compound 0.1 µM
[33] = second compound 10 µM, first compound 0.316 µM
[34] = second compound 10 µM, first compound 1 µM
[35] = second compound 10 µM, first compound 3.16 µM
[36] = second compound 10 µM, first compound 10 µM
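Further: spheroids exposed to compounds for seven days before readout.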

C#Cc1c(F)ccc2cc(O)cc(-c3ncc4c(N5CC6CCC(C5)N6)nc(OCC56CCCN5CC(F)C6)nc4c3F)c12 (stereo unspecified) + Nc1ccc(C#CCN(C(=O)Cc2ncc(C(F)(F)F)cc2C(F)(F)F)c2ccc(F)cc2)nn1
IC50 (second compound 0.0316 µM): > 10 µM
IC50 (second compound 0.1 µM): > 10 µM
IC50 (second compound 0.316 µM): > 10 µM
IC50 (second compound 1 µM): > 10 µM
IC50 (second compound 3.16 µM): > 10 µM
IC50 (second compound 10 µM): > 10 µM
viability, T/C [1]: 110%
viability, T/C [2]: 110%
viability, T/C [3]: 102%
viability, T/C [4]: 98%
viability, T/C [5]: 110%
viability, T/C [6]: 109%
viability, T/C [7]: 96.4%
viability, T/C [8]: 106%
viability, T/C [9]: 85.6%
viability, T/C [10]: 101%
viability, T/C [11]: 138%
viability, T/C [12]: 102%
viability, T/C [13]: 100%
viability, T/C [14]: 120%
viability, T/C [15]: 124%
viability, T/C [16]: 111%
viability, T/C [17]: 120%
viability, T/C [18]: 115%
viability, T/C [19]: 107%
viability, T/C [20]: 98%
viability, T/C [21]: 107%
viability, T/C [22]: 109%
viability, T/C [23]: 113%
viability, T/C [24]: 99%
viability, T/C [25]: 92.5%
viability, T/C [26]: 99%
viability, T/C [27]: 97.9%
viability, T/C [28]: 97.6%
viability, T/C [29]: 108%
viability, T/C [30]: 106%
viability, T/C [31]: 103%
viability, T/C [32]: 94.3%
viability, T/C [33]: 90.7%
viability, T/C [34]: 100%
viability, T/C [35]: 103%
viability, T/C [36]: 91.3%

CC1COCCN1c1cc(C2(O)CC3CCC(C2)O3)c2cnn(-c3ccn[nH]3)c2n1 (stereo unspecified) + Nc1ccc(C#CCN(C(=O)Cc2ncc(C(F)(F)F)cc2C(F)(F)F)c2ccc(F)cc2)nn1
IC50 (second compound 0.0316 µM): 0.217 µM
IC50 (second compound 0.1 µM): 0.194 µM
IC50 (second compound 0.316 µM): 0.174 µM
IC50 (second compound 1 µM): 0.17 µM
IC50 (second compound 3.16 µM): 0.147 µM
IC50 (second compound 10 µM): 0.0989 µM
viability, T/C [1]: 111%
viability, T/C [2]: 105%
viability, T/C [3]: 23.2%
viability, T/C [4]: 12.7%
viability, T/C [5]: 11.1%
viability, T/C [6]: 7.13%
viability, T/C [7]: 139%
viability, T/C [8]: 84%
viability, T/C [9]: 24.7%
viability, T/C [10]: 12%
viability, T/C [11]: 11.2%
viability, T/C [12]: 5.82%
viability, T/C [13]: 117%
viability, T/C [14]: 78.9%
viability, T/C [15]: 18.5%
viability, T/C [16]: 13.2%
viability, T/C [17]: 12%
viability, T/C [18]: 5.73%
viability, T/C [19]: 104%
viability, T/C [20]: 72.7%
viability, T/C [21]: 23.1%
viability, T/C [22]: 10.9%
viability, T/C [23]: 10.2%
viability, T/C [24]: 5.09%
viability, T/C [25]: 107%
viability, T/C [26]: 69%
viability, T/C [27]: 12.6%
viability, T/C [28]: 14.6%
viability, T/C [29]: 9.39%
viability, T/C [30]: 5.42%
viability, T/C [31]: 151%
viability, T/C [32]: 48.6%
viability, T/C [33]: 17%
viability, T/C [34]: 11.1%
viability, T/C [35]: 9.46%
viability, T/C [36]: 4.88%

O=C(Nc1ccc(O)c(NS(=O)(=O)c2ccc(F)cc2)c1)c1ccc(-c2ccccc2)cc1 + Nc1ccc(C#CCN(C(=O)Cc2ncc(C(F)(F)F)cc2C(F)(F)F)c2ccc(F)cc2)nn1
IC50 (second compound 0.0316 µM): > 10 µM
IC50 (second compound 0.1 µM): > 10 µM
IC50 (second compound 0.316 µM): > 10 µM
IC50 (second compound 1 µM): > 10 µM
IC50 (second compound 3.16 µM): > 10 µM
IC50 (second compound 10 µM): > 10 µM
viability, T/C [1]: 93.4%
viability, T/C [2]: 119%
viability, T/C [3]: 108%
viability, T/C [4]: 88.1%
viability, T/C [5]: 105%
viability, T/C [6]: 77.5%
viability, T/C [7]: 95.5%
viability, T/C [8]: 105%
viability, T/C [9]: 94.5%
viability, T/C [10]: 103%
viability, T/C [11]: 117%
viability, T/C [12]: 63.8%
viability, T/C [13]: 91.3%
viability, T/C [14]: 114%
viability, T/C [15]: 102%
viability, T/C [16]: 99.2%
viability, T/C [17]: 106%
viability, T/C [18]: 77.4%
viability, T/C [19]: 92.8%
viability, T/C [20]: 92.8%
viability, T/C [21]: 95.5%
viability, T/C [22]: 95.2%
viability, T/C [23]: 112%
viability, T/C [24]: 73.6%
viability, T/C [25]: 93.6%
viability, T/C [26]: 94.2%
viability, T/C [27]: 91.3%
viability, T/C [28]: 96.3%
viability, T/C [29]: 93.7%
viability, T/C [30]: 62.2%
viability, T/C [31]: 92%
viability, T/C [32]: 90.1%
viability, T/C [33]: 89.2%
viability, T/C [34]: 88.7%
viability, T/C [35]: 95.1%
viability, T/C [36]: 51.5%
